Test results reported in patent US12187709B2 (Genentech, Inc., priority 2021, dated 2025).

Columns and labels:
Cbl-b = Cbl-b (Homo sapiens (Human), UniProt Q13191); test: Cbl-b LCK Ub TR-FRET assay (Cbl-b Lck HTRF); assay type: biochemical; conditions: for IC50: Cbl-b LCK Ub TR-FRET; for fold-selectivity (Cbl-b over C-cbl) / (fold-selectivity) Cbl-b and C-Cbl Selectivity: ratio C-cbl Lck HTRF IC50 / Cbl-b Lck HTRF IC50
Method in brief: (§1)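 After the ubiquitination reaction, detection mixture was added and plates incubated 20 min at room temperature before reading. IC50 values were calculated with wells lacking LCK as the low control and DMSO as the high control.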

c-Cbl = c-Cbl (Homo sapiens (Human), UniProt P22681); test: C-Cbl LCK Ub TR-FRET assay (C-cbl Lck HTRF); assay type: biochemical
Method in brief: as §1

[1] = molecular target: Human Cbl-b (residues 40-426) (Homo sapiens (Human), UniProt Q13191); test: Cbl-b SPR assay; assay type: binding; conditions: for Fold of selectivity: C-cbl SPR Kd vs Cbl-b SPR Kd; for Kd: SPR, 20° C.
Method in brief: (§2)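 Binding is measured by surface plasmon resonance against both isoforms, with double referencing and 1:1 kinetic fitting. Dissociation time is tuned to 4-5 half-lives.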

c-Cbl (residues 47-435) = c-Cbl (residues 47-435) (Homo sapiens (Human), UniProt P22681); test: c-Cbl SPR assay; assay type: binding; conditions: 20° C.
Method in brief: as §2

Human Cbl-b (residues 40-426), sequence (Q13191 40-426): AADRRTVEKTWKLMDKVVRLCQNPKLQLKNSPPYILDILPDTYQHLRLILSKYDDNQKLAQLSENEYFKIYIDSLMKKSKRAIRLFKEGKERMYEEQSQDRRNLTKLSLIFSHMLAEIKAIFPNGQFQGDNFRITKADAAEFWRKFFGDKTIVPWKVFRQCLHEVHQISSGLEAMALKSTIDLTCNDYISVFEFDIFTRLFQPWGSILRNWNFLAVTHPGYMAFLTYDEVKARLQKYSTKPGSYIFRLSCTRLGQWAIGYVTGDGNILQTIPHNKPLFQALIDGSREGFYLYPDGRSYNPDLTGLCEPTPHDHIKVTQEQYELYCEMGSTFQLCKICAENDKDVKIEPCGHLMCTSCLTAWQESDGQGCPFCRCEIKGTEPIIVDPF
Cbl-b, sequence (Q13191 40-426): as above
c-Cbl (residues 47-435), sequence (P22681 47-435): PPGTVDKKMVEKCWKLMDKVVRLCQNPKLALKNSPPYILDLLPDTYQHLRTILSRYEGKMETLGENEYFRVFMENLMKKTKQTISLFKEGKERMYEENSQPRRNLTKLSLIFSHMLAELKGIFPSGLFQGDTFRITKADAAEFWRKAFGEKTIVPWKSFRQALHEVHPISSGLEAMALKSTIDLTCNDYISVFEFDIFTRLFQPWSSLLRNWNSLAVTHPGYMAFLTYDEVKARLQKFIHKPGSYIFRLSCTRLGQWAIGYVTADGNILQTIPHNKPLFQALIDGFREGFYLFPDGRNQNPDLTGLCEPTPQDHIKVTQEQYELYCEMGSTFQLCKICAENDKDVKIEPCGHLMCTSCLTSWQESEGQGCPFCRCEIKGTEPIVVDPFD
c-Cbl, sequence (P22681 47-435): as above

Row | SMILES | IC50 (Cbl-b) | fold-selectivity (Cbl-b over C-cbl) (Cbl-b) | IC50 (c-Cbl) | Fold of selectivity [1] | Kd [1] | Kd (c-Cbl (residues 47-435)) | IC50 (Cbl-b; Example 121) | (fold-selectivity) Cbl-b and C-Cbl Selectivity (Cbl-b)
1 | Cn1cnnc1C(F)(c1cccc(N2Cc3c(cc(CNC4(C)CCC4)cc3C(F)(F)F)C2=O)c1)C1(F)COC1 (stereo in doubt) [Compound 403, (S)-2-(3-(fluoro(3-fluorooxetan-3-yl)(4-methyl-4H-1,2,4-triazol-3-yl)methyl)phenyl)-6-(((1-methylcyclobutyl)amino)methyl)-4-(trifluoromethyl)isoindolin-1-one] | 750 nM | 1.3x | 960 nM | 1.0× | 2500 nM | 2400 nM | – | –
2 | CC(C)[C@H]1CN(C)CCN1Cc1cc2c(c(C(F)(F)F)c1)CN(c1cccc([C@]3(c4nncn4C)C[C@H](C#N)C3)c1)C2=O (single isomer, unassigned) [Compound 63] | 7.9 nM | (1.8x) | 14.2 nM | 5.1× | 3.7 nM | 19 nM | – | –
3 | Cc1cnnn1[C@@H](c1cccc(N2Cc3c(cc(CNC4(C)CCC4)cc3C(F)(F)F)C2=O)c1)C1COC1 (single isomer, unassigned) [Compound 135] | 37 nM | 1.9x | 69 nM | 4.9× | 13 nM | 63 nM | – | –
4 | Cn1cnnc1[C@H](c1cccc(N2Cc3c(cc(CNC4(C)CCC4)cc3C(F)(F)F)C2=O)c1)[C@H]1CCOC1 [Compound 169, 2-(3-((S)-(4-methyl-4H-1,2,4-triazol-3-yl)((R)-tetrahydrofuran-3-yl)methyl)phenyl)-6-(((1-methylcyclobutyl)amino)methyl)-4-(trifluoromethyl)isoindolin-1-one] | 72 nM | 4.8x | 340 nM | 2.7× | 66 nM | 180 nM | – | –
5 | Cn1cnnc1[C@@](O)(c1cccc(N2Cc3c(cc(CNC4(C)CCC4)cc3C(F)(F)F)C2=O)c1)C1COC1 (single isomer, unassigned) [Compound 143] | 62 nM | 3.1x | 190 nM | 4.3× | 58 nM | 220 nM | – | –
6 | CO[C@H]1C[C@@H]([C@@H](c2cccc(N3Cc4c(cc(CN5CCN(C)C[C@@H]5C(C)C)cc4C(F)(F)F)C3=O)c2)c2nncn2C)C1 (stereo in doubt) [Compound 13, 6-(((S)-2-isopropyl-4-methylpiperazin-1-yl)methyl)-2-(3-((S)-((1 S,3S)-3-methoxycyclobutyl)(4-methyl-4H-1,2,4-triazol-3-yl)methyl)phenyl)-4-(trifluoromethyl)isoindolin-1-one] | 200 nM | (2.7x) | 540 nM | 4.1× | 120 nM | 490 nM | – | –
7 | Cc1cc([C@@H](c2nncn2C)C2COC2)cc(N2Cc3c(cc(CNC4(C)CCC4)cc3C(F)(F)F)C2=O)c1 (single isomer, unassigned) [Compound 333] | 39 nM | 1.0x | 41 nM | 2.2× | 26 nM | 56 nM | – | –
8 | Cn1cnnc1[C@]1(c2cccc(N3Cc4c(Cl)cc(CNC5(C)CCC5)cc4C3=O)c2)C[C@H](F)C1 [Compound 246, 4-chloro-2-(3-((1s,3s)-3-fluoro-1-(4-methyl-4H-1,2,4-triazol-3-yl)cyclobutyl)phenyl)-6-(((1-methylcyclobutyl)amino)methyl)isoindolin-1-one] | 8.6 nM | 1.7x | 15 nM | 2.1× | 4.2 nM | 8.5 nM | – | –
9 | CC(=O)C1CC([C@@H](c2cccc(N3Cc4c(cc(CNC5(C)CCC5)cc4C(F)(F)F)C3=O)c2)c2nncn2C)C1 (single isomer, unassigned) [Compound 383] | 19 nM | 1.3x | 24 nM | 7.7× | 2.6 nM | 20 nM | – | –

The next lines start with the values.

Row | IC50 (Cbl-b) | fold-selectivity (Cbl-b over C-cbl) (Cbl-b) | IC50 (c-Cbl) | Fold of selectivity [1] | Kd [1] | Kd (c-Cbl (residues 47-435)) | IC50 (Cbl-b; Example 121) | (fold-selectivity) Cbl-b and C-Cbl Selectivity (Cbl-b) | SMILES
10 | – | – | 3200 nM | 7.2× | 1100 nM | 8600 nM | 480 nM | 6.6x | CO[C@H]1C[C@](c2cccc(N3Cc4c(cc(CN5CCOCC5)cc4C(F)(F)F)C3=O)c2)(c2nncn2C)C1 [Compound 417, 2-(3-((1r,3r)-3-methoxy-1-(4-methyl-4H-1,2,4-triazol-3-yl)cyclobutyl)phenyl)-6-(morpholinomethyl)-4-(trifluoromethyl)isoindolin-1-one]
11 | 4.8 nM | 1.5x | 7.1 nM | 10× | 0.57 nM | 5.7 nM | – | – | CS[C@H]1C[C@@](c2cccc(N3Cc4c(cc(CNC5(C)CCC5)cc4C(F)(F)F)C3=O)c2)(c2nncn2C)C1 [Compound 324, 2-(3-((1s,3s)-1-(4-methyl-4H-1,2,4-triazol-3-yl)-3-(methylthio)cyclobutyl)phenyl)-6-(((1-methylcyclobutyl)amino)methyl)-4-(trifluoromethyl)isoindolin-1-one]
12 | – | – | 1400 nM | 8.7× | 140 nM | 1200 nM | 180 nM | 7.3x | CO[C@H]1C[C@](c2cccc(N3Cc4c(cc(CN5CCCC5)cc4C(F)(F)F)C3=O)c2)(c2nncn2C)C1 [Compound 418, 2-(3-((1r,3r)-3-methoxy-1-(4-methyl-4H-1,2,4-triazol-3-yl)cyclobutyl)phenyl)-6-(pyrrolidin-1-ylmethyl)-4-(trifluoromethyl)isoindolin-1-one]
13 | – | – | 74 nM | 7.8× | 6.2 nM | 48 nM | 14 nM | 5.3x | CO[C@H]1C[C@](c2cccc(N3Cc4c(cc(CNCC5(CO)CCC5)cc4C(F)(F)F)C3=O)c2)(c2nncn2C)C1 [Compound 489, 6-((((1-(hydroxymethyl)cyclobutyl)methyl)amino)methyl)-2-(3-((1r,3r)-3-methoxy-1-(4-methyl-4H-1,2,4-triazol-3-yl)cyclobutyl)phenyl)-4-(trifluoromethyl)isoindolin-1-one]
14 | 6.4 nM | 6.4x | 20 nM | 16× | 1.2 nM | 19 nM | – | – | Cn1cnnc1C1(c2cccc(N3Cc4c(cc(CNC5(C)CCC5)cc4C(F)(F)F)C3=O)c2)CC(OC(F)(F)F)C1 (single isomer, unassigned) [Compound 351, 2-(3-((1r,3r)-1-(4-methyl-4H-1,2,4-triazol-3-yl)-3-(trifluoromethoxy)cyclobutyl)phenyl)-6-(((1-methylcyclobutyl)amino)methyl)-4-(trifluoromethyl)isoindolin-1-one]
15 | 18 nM | 3.7x | 74 nM | 10.2× | 3.5 nM | 36 nM | – | – | CO[C@H]1C[C@](c2cccc(N3Cc4c(cc(CN5CCN(C)C[C@@H]5C(C)C)cc4C(F)(F)F)C3=O)c2)(c2nncn2C)C1 [Compound 180, 6-(((S)-2-isopropyl-4-methylpiperazin-1-yl)methyl)-2-(3-((1r,3S)-3-methoxy-1-(4-methyl-4H-1,2,4-triazol-3-yl)cyclobutyl)phenyl)-4-(trifluoromethyl)isoindolin-1-one]
